{
  "source": "patent US20260276656A1",
  "about": "“GUT MICROBIOTA-RELATED METHODS FOR TREATING DEMENTIA AND AGE-DEPENDENT COGNITIVE DECLINE” (Albert-Ludwigs-Universitat Freiburg, priority 2019, published 2026)",
  "key": {"[1]": {"test_system": "parvalbumin-positive interneurons", "test": "Spontaneous IPSC recordings from parvalbumin-positive interneurons in acute hippocampal slices", "assay_type": "cell-based", "conditions": "bath-applied, 10 μM; acute mouse hippocampal slices, area CA1", "protocol": "Mice were anesthetized and decapitated, after which the brain was quickly removed and placed into oxygenated, ice-cold, high-sucrose artificial cerebrospinal fluid (hsACSF), containing (in mM): 150 sucrose, 50 NaCl, 25 NaHCO3, 10 dextrose, 2.5 KCl, 1 NaH2PO4·H2O, 0.5 CaCl2), and 7 MgCl2. After 2 min in hsACSF, the brain was blocked, glued to the stage of a Vibratome (VTS1000; Leica, Bannockburn, IL), and cut into 300-μm horizontal brain slices containing hippocampus. Slices were then placed in a chamber containing ACSF (in mM: 124 NaCl, 3 KCl, 1.25 NaH2PO4·H2O, 2 MgSO4·7H2O, 26 NaHCO3, 10 dextrose, and 2 CaCl2)). […]\nFor recording, slices were placed in a submerged recording chamber (Warner Instruments, Hamden, CT) with oxygenated ACSF heated to 32° C. and flowing at 2-4 ml/min. […] Data were obtained using an Axopatch 1D amplifier (Axon Instruments, Foster City, CA); data were digitized at 10 kHz and recorded using a Digidata 1320A and pClamp 8.2 software (Molecular Devices, Sunnyvale, CA). […] After obtaining a stable voltage-clamp recording from a CA1 interneuron, the recording was switched to current-clamp mode and injected steps of hyperpolarizing and depolarizing current were used to determine the class of cell being recorded using published firing patterns and action potential (AP) properties (Butt et al., 2005; Flames and Marin, 2005). […]"}, "[2]": {"test_system": "prelimbic or infralimbic cortex of the mPFC", "test": "In vivo recordings from prelimbic or infralimbic cortex, spike-spike synchronization", "design": "species or system mouse", "conditions": "systemic application (intraperitoneally); n=9 mice; FIG. 8", "protocol": "C57BL/6J mice aged 10-11 weeks were anesthetized with isofluorane (induction: 3%, maintenance approximately 1.5%). Buprenorphin (0.05-0.1 mg/kg body weight) and Carprofen (4-5 mg/kg body weight) were injected for analgesia. During implantation, the body temperature was maintained with a heating pad. The skin was incised from the cerebellum to the nose and the bone cleaned with 3% H2O2. Ground and reference screws (1 mm diameter) were inserted anterior to the lambdoid suture. A third stabilizing screw was inserted on the left parietal bone. A microdrive loaded with 8 tetrodes made from tungsten wire (California Fine Wire Company) was inserted in the right prefrontal cortex at the coordinates AP+1.9, ML 0.4, DV−1.2 (from brain surface). The craniotomy was protected with vaseline and the microdrive fixed to the skull using dental cement. After the surgery, the mice were injected with buprenorphin and carprofen subcutaneously for 48 h hours and housed individually.\nLocal field potential were recorded with a wireless amplifier system (W4, Multichannel Systems) 2-21 days after surgery at a sampling rate of 2 kHz or with a wired recording system (RHD2000, Intan Technologies, sampling rate 10 kHz) on freely moving mice. Single-unit activity was recorded at 20-30 kHz using a 32-channel amplifier system (RHD2000, Intan Technologies). […]"}},
  "data": [
    {"smiles": "C[N+](C)(C)CCCCC(=O)[O-]", "note": "[NNN-trimethyl-5-aminovalerate, 5-(trimethylammonio) pentanoate]", "values": [
      {"measurement": "frequencies of spontaneous IPSCs (spIPSCs) in parvalbumin-positive interneurons", "setting": "[1]", "result": "increase"},
      {"measurement": "spike-spike-synchronization", "setting": "[2]", "result": "enhanced"}
    ]}
  ]
}
